Experimental data as given in the kinase profiling compilation of Christmann-Franck et al. (2016).

Columns and labels:
Experiment in all cases: KINOMEscan competition binding
Details in all cases: compound 1.0 µM
IRAK4 (human) = IRAK4 (human) (UniProt Q9NWZ3)
[1] = test system: FLT3 (human), P36888 [K663Q]
CAMK1G (human) = CAMK1G (human) (UniProt Q96NX5)
PLK4 (human) = PLK4 (human) (UniProt O00444)
RIPK4 (human) = RIPK4 (human) (UniProt P57078)
CHEK1 (human) = CHEK1 (human) (UniProt O14757)
TNNI3K (human) = TNNI3K (human) (UniProt Q59H18)
[2] = molecular target: JAK2 JH1 catalytic (human) (UniProt O60674)
FYN (human) = FYN (human) (UniProt P06241)
ERBB4 (human) = ERBB4 (human) (UniProt Q15303)
EPHA8 (human) = EPHA8 (human) (UniProt P29322)
PHKG1 (human) = PHKG1 (human) (UniProt Q16816)
PHKG1 (human), sequence (Q16816 whole entry, looked up): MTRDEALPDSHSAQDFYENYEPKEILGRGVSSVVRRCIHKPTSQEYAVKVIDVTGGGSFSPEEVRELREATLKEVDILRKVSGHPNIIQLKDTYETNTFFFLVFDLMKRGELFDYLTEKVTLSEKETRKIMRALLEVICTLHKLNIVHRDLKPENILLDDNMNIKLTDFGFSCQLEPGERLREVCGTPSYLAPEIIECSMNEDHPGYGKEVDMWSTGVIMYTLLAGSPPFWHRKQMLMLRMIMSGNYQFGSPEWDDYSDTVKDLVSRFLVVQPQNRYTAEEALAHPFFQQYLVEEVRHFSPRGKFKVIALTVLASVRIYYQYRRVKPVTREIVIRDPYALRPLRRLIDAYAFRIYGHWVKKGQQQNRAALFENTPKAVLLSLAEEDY

PRKACB (human) = PRKACB (human) (UniProt P22694)
CDK14 (human) = CDK14 (human) (UniProt O94921)
ACVRL1 (human) = ACVRL1 (human) (UniProt P37023)
PAK4 (human) = PAK4 (human) (UniProt O96013)
PAK4 (human), sequence (O96013 whole entry, looked up): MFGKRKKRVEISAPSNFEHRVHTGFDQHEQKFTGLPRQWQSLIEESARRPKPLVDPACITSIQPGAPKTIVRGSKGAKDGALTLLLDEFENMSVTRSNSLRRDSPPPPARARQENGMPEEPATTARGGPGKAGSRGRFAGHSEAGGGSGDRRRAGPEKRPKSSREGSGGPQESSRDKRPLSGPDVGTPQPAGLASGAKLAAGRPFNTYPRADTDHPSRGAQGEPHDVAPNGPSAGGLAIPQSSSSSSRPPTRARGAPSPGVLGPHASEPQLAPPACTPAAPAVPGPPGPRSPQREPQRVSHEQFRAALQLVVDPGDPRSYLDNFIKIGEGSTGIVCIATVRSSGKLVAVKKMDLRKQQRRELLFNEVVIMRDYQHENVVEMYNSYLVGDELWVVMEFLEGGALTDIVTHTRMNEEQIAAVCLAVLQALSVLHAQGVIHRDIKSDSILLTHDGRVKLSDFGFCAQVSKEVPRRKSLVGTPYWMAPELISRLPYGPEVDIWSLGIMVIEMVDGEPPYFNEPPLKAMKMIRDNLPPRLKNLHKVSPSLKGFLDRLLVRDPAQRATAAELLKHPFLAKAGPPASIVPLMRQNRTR

[3] = test system: LRRK2 (human), Q5S007 [G2019S]
CDKL5 (human) = CDKL5 (human) (UniProt O76039)
ADCK4 (human) = ADCK4 (human) (UniProt Q96D53)
MAP3K12 (human) = MAP3K12 (human) (UniProt Q12852)
MAP3K12 (human), sequence (Q12852 whole entry, looked up): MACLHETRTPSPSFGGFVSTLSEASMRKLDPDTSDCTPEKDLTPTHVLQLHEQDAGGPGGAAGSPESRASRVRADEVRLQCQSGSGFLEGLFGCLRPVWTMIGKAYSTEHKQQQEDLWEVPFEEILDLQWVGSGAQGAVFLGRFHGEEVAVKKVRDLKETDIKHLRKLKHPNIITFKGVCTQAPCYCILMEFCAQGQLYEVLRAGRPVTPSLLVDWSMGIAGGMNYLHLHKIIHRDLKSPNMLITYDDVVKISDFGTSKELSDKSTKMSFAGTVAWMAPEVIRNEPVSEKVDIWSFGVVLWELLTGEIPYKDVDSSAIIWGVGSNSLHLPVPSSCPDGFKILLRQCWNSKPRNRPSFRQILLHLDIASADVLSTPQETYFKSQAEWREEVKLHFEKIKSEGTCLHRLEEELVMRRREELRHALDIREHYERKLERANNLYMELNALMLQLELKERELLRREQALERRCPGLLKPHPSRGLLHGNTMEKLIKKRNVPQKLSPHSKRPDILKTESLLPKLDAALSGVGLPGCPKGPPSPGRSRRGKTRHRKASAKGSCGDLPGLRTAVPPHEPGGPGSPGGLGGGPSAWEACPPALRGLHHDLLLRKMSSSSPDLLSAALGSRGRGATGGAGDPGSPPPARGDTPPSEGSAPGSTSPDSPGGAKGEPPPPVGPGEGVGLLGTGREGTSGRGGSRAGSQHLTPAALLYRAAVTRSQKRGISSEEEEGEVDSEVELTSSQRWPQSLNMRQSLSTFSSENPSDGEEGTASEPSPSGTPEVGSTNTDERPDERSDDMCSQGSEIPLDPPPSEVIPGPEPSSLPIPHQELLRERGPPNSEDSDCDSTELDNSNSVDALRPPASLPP

LATS1 (human) = LATS1 (human) (UniProt O95835)
LATS1 (human), sequence (O95835 whole entry, looked up): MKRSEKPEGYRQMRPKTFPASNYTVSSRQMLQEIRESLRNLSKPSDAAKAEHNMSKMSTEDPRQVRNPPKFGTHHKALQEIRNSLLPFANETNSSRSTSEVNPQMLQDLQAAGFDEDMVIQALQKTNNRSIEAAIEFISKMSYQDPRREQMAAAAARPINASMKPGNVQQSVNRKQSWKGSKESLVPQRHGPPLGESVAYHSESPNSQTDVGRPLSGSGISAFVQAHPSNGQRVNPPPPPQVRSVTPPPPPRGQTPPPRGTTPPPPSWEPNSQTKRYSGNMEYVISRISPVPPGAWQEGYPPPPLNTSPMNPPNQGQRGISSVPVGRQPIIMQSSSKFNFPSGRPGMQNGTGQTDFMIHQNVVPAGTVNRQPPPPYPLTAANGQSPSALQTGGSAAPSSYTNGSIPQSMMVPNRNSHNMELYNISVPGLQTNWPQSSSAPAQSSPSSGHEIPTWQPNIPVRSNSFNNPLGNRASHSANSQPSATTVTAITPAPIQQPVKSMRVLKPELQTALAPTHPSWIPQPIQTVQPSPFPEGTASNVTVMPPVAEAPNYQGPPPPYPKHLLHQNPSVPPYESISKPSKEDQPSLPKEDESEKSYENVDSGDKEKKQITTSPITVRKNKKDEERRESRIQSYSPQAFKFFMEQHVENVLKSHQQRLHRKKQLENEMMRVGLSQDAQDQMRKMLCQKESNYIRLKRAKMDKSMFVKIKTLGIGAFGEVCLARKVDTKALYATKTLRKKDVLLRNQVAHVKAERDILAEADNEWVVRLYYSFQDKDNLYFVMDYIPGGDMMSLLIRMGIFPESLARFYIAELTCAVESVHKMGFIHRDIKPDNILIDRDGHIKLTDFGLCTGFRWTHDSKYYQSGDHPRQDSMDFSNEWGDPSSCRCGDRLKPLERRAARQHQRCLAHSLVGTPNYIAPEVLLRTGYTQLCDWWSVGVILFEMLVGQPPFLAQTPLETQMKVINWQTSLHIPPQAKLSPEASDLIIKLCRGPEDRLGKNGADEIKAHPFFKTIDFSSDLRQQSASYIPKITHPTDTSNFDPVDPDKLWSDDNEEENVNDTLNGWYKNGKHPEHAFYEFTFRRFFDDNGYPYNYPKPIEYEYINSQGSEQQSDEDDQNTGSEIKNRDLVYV

CDK4 CCND3 (human) = CDK4 CCND3 (human) (UniProt P11802+P30281)
CLK2 (human) = CLK2 (human) (UniProt P49760)
FGFR2 (human) = FGFR2 (human) (UniProt P21802)
BRSK1 (human) = BRSK1 (human) (UniProt Q8TDC3)
BRSK1 (human), sequence (Q8TDC3 whole entry, looked up): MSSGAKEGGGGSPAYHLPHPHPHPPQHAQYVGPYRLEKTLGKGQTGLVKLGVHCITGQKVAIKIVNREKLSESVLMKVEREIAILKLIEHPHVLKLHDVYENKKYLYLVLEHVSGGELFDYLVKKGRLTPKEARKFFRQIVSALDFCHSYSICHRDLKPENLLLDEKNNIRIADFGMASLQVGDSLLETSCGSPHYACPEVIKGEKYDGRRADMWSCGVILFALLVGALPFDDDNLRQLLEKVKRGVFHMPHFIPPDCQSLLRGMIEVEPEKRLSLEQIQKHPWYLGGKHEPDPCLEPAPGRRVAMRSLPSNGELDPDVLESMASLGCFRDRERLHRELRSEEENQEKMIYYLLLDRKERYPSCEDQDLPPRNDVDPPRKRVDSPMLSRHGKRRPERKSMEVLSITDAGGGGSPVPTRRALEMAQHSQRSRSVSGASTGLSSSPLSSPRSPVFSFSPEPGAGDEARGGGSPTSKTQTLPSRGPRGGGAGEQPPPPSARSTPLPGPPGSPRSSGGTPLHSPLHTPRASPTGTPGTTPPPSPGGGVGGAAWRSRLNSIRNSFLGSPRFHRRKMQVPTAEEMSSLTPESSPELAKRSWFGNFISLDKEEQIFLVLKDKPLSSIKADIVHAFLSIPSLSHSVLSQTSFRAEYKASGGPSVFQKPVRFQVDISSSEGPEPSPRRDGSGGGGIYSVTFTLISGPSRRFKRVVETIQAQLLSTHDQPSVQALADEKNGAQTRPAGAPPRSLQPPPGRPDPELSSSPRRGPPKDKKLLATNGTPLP

RPS6KA6 KD2 (human) = RPS6KA6 KD2 (human) (UniProt Q9UK32)
AXL (human) = AXL (human) (UniProt P30530)
MARK1 (human) = MARK1 (human) (UniProt Q9P0L2)
WEE2 (human) = WEE2 (human) (UniProt P0C1S8)
WEE2 (human), sequence (P0C1S8 whole entry, looked up): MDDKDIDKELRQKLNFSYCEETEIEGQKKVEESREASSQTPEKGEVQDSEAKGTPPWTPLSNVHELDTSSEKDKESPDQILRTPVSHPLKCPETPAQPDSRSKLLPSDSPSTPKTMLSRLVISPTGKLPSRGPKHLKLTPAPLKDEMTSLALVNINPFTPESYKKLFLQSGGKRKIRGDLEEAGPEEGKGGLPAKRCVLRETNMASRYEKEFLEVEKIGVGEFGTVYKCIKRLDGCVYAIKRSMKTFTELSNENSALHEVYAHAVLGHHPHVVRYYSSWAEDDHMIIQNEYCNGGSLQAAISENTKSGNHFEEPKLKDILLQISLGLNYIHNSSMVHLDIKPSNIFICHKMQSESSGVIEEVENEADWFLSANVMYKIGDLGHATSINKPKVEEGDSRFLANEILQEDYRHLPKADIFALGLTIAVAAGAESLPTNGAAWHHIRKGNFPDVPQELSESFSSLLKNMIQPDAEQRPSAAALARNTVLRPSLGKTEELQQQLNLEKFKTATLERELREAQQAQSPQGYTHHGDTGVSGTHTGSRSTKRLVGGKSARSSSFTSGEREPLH

SRC (human) = SRC (human) (UniProt P12931)
FRK (human) = FRK (human) (UniProt P42685)
CHUK (human) = CHUK (human) (UniProt O15111)
FES (human) = FES (human) (UniProt P07332)
MAPK10 (human) = MAPK10 (human) (UniProt P53779)
NTRK2 (human) = NTRK2 (human) (UniProt Q16620)
DCLK1 (human) = DCLK1 (human) (UniProt O15075)
DCLK1 (human), sequence (O15075 whole entry, looked up): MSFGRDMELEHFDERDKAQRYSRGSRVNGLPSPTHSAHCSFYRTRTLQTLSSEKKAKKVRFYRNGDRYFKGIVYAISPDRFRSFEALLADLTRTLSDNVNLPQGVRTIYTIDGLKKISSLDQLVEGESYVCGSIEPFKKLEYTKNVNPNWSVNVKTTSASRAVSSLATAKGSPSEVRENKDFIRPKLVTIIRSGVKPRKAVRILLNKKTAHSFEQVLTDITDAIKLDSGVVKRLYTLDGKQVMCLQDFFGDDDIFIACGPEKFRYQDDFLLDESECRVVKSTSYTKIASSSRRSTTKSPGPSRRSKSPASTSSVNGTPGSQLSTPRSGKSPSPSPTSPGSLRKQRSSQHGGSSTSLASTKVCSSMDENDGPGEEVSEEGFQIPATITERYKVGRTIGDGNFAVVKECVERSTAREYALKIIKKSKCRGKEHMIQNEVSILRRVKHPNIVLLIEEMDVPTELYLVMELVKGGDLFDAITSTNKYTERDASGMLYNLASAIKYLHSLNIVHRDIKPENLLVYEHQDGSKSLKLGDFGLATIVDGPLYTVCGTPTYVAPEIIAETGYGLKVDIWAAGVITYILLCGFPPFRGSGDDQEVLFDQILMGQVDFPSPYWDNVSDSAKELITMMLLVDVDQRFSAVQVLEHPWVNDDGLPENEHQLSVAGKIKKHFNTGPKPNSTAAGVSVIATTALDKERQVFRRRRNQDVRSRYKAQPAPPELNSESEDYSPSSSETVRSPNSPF

MAP2K2 (human) = MAP2K2 (human) (UniProt P36507)
TLK1 (human) = TLK1 (human) (UniProt Q9UKI8)
STK4 (human) = STK4 (human) (UniProt Q13043)
[4] = test system: PIK3CA (human), P42336 [E542K]
MARK4 (human) = MARK4 (human) (UniProt Q96L34)
RPS6KA6 KD1 (human) = RPS6KA6 KD1 (human) (UniProt Q9UK32)
CDK17 (human) = CDK17 (human) (UniProt Q00537)

COCCNCCCn1c(C(=O)CF)c(-c2ccc(C)cc2)c2c(N)ncnc21
kinase still bound, per cent of control (IRAK4 (human)): 100%
kinase still bound, per cent of control [1]: 100%
kinase still bound, per cent of control (CAMK1G (human)): 97%
kinase still bound, per cent of control (PLK4 (human)): 100%
kinase still bound, per cent of control (RIPK4 (human)): 100%
kinase still bound, per cent of control (CHEK1 (human)): 100%
kinase still bound, per cent of control (TNNI3K (human)): 89%
kinase still bound, per cent of control [2]: 100%
kinase still bound, per cent of control (FYN (human)): 87%
kinase still bound, per cent of control (ERBB4 (human)): 100%
kinase still bound, per cent of control (EPHA8 (human)): 75%
kinase still bound, per cent of control (PHKG1 (human)): 100%
kinase still bound, per cent of control (PRKACB (human)): 96%
kinase still bound, per cent of control (CDK14 (human)): 100%
kinase still bound, per cent of control (ACVRL1 (human)): 100%
kinase still bound, per cent of control (PAK4 (human)): 92%
kinase still bound, per cent of control [3]: 100%
kinase still bound, per cent of control (CDKL5 (human)): 100%
kinase still bound, per cent of control (ADCK4 (human)): 93%
kinase still bound, per cent of control (MAP3K12 (human)): 94%
kinase still bound, per cent of control (LATS1 (human)): 100%
kinase still bound, per cent of control (CDK4 CCND3 (human)): 100%
kinase still bound, per cent of control (CLK2 (human)): 100%
kinase still bound, per cent of control (FGFR2 (human)): 100%
kinase still bound, per cent of control (BRSK1 (human)): 82%
kinase still bound, per cent of control (RPS6KA6 KD2 (human)): 2.4%
kinase still bound, per cent of control (AXL (human)): 81%
kinase still bound, per cent of control (MARK1 (human)): 90%
kinase still bound, per cent of control (WEE2 (human)): 100%
kinase still bound, per cent of control (SRC (human)): 98%
kinase still bound, per cent of control (FRK (human)): 81%
kinase still bound, per cent of control (CHUK (human)): 72%
kinase still bound, per cent of control (FES (human)): 100%
kinase still bound, per cent of control (MAPK10 (human)): 100%
kinase still bound, per cent of control (NTRK2 (human)): 74%
kinase still bound, per cent of control (DCLK1 (human)): 100%
kinase still bound, per cent of control (MAP2K2 (human)): 100%
kinase still bound, per cent of control (TLK1 (human)): 78%
kinase still bound, per cent of control (STK4 (human)): 94%
kinase still bound, per cent of control [4]: 100%
kinase still bound, per cent of control (MARK4 (human)): 74%
kinase still bound, per cent of control (RPS6KA6 KD1 (human)): 90%
kinase still bound, per cent of control (CDK17 (human)): 100%
